Source: patent US7566722B2, “Triazolopyrimidine derivatives as ADP P2Y12 receptor antagonists” (Janssen Pharmaceutica, N.V., priority 2006, dated 2009)

Columns and labels:
ADP P2Y12 receptor = biological target: T1, ADP P2Y12 receptor (Homo sapiens, UniProt Q9H244); test: FLIPR calcium assay transducing Gi-coupled signaling to the Gq pathway (inhibition of ADP-induced calcium mobilization); format: cell-based; conditions: HEK 293 cells co-transfected with P2Y12 and Gqi5, ADP at EC60-70 dose
T1 construct: expressed in transfected cells
T1 sequence (Q9H244 whole entry): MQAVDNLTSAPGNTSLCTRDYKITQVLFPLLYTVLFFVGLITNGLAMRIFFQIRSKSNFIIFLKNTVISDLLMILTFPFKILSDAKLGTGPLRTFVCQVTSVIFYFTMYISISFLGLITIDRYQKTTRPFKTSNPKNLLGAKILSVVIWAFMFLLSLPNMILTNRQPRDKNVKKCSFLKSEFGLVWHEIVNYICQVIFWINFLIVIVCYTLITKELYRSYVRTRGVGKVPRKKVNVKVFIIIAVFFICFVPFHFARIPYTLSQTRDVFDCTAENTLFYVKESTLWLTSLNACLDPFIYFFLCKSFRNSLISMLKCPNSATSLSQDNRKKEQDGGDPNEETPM
Source text: A FLIPR Calcium Assay Transducing Gi-Coupled Signaling to the Gq Pathway
The ADP P2Y12 subtype is a Gi coupled GPCR, which mediates inhibition of adenylate cyclase leading to decreased cAMP while Gq proteins primarily activate phospholipase C, which stimulates inositol-1,4,5-triphosphate (IP3) formation and a subsequent increase in intracellular Ca^2+ concentration, which can be easily measured by FLIPR. Prior to the development of a method to convert a Gi coupled GPCR signaling to a Gq coupled GPCR signaling, a significant barrier existed for the functional testing and screening of Gi coupled GPCRs. One popular method, GTPγS migration, is slow, produces a small signal and generates radioactive waste. The discovery that a small switch in the amino acid sequence in the Gi protein could convert it to a protein mediating a Gq coupled response has led to the development of robust, high throughput assays for this valuable receptor subtype.
The FLIPR-based HTS assay transducing the Gi signaling to the Gq pathway is described below.
pcDNA3hygroP2Y12 containing a hygromycin resistance gene and pLEC1-Gqi5-HA containing a neomycin resistance gene (licensed from Molecular Devices, Sunnyvale, Calif.) were co-transfected into Human embryonic kidney (HEK) 293 cells with SuperFect (Qiagen, Valencia, Calif.). Cell clones were selected in the presence of 600 μg/ml hygromycin B (Life Technologies, Carlsbad, Calif.) and 1 mg/ml of G418 (Mediatech, Herndon, Va.). Drug resistant colonies were picked and screened by FLIPR and the gene expression was further confirmed by RT-PCR. Positive clones were maintained in growth medium (DMEM supplemented with 10% FBS, 1× p/s) containing 400 μg/ml of G418 and 200 μg/ml of hygromycin.
The day before the assay, cells are seeded in clear, flat-bottom black-wall, tissue culture treated polystyrene 96- or 384-well plates and incubated at 37° C., 5% CO2. 50 μl of complete dye loading solution (FLIPR Calcium Assay Kit, Molecular Devices) was added to each well containing 100 μl of culture media. The cells were incubated for at least 30 min at 37° C., in 5% CO2 before initiating the assay on the FLIPR. The agonist effect of ADP was tested and EC50 was determined prior to compound testing. The EC60-70 dose was used.
The antagonist compounds were prepared at 4× and the agonists were diluted at 5× the concentration desired in the test wells, and then aliquoted into the sample plates. The sample plates and the cell plate were placed in the FLIPR assay chamber. A first addition (50 μl) was made at the start of reading and a second addition (50 μl) was made after 5 min of reading. Raw fluorescence data was exported for each well and tabulated versus time within an ASCII file. Data was then imported into Excel and the peak response over the basal level was determined. The percent inhibition for each compound was calculated by the change in fluorescent density as a % inhibition of the control ADP response to obtain an IC50, as shown in Table 1 (wherein N/A means Not Applicable).

P2Y12 receptor = biological target: T2, P2Y12 receptor (Homo sapiens, UniProt Q9H244); test: Whole cell receptor binding assay, 2-MeS[3H]-ADP; conditions: HEK 293 cells stably transfected with P2Y12; 2-MeS[3H]-ADP 3 nM; 30 min at 37° C.; read-out: Inhibition of Receptor Binding (IC50 μM)
T2 construct: expressed in transfected cells
T2 sequence (Q9H244 whole entry): as above
Protocol: A whole cell-binding assay for 2-MeS [^3H]-ADP (Custom synthesized by Amersham BioScience, Piscataway, N.J.) to the P2Y12 receptor was performed.
A P2Y12 cDNA containing hygromycin resistant gene was transfected in HEK 293 cells. A stable cell line was obtained by a cloning selection method. The cells were cultured in DMEM supplemented with 10% FBS and 1× of p/s.
On the day of the assay, the cells were harvested and resuspended in 0.25% BSA-DMEM and adjusted to a cell concentration of 1.6×10^6/ml. 15 μl of each compound was mixed with 120 μl of cell suspension in 96 well assay plates and incubated for 5 min prior to the addition of the radio-labeled ligand 2-MeS[^3H]-ADP (3 nM final in 0.25% BSA-DMEM) or unlabeled […] (for non-specific binding). The reaction was then incubated for 30 min at 37° C. and stopped by adding cold DMEM. The labeled and unlabeled cells were separated by a filtration method using a Packard Filtermate 196 on to the unfilter-96 GF/B plate. The plates were dyed in a 37° C. oven for 1-2 hours and 50 μl of MicroScint-20 (PerkinElmer) was added to each well. The radioactivity was measured using a TOPCOUNT beta counter (Packard). The percent inhibition for each compound was calculated by the change in radioactivity as a % inhibition of the control to obtain an IC50, as shown in Table 2.

platelets = test: In vitro platelet aggregation (ADP-induced, washed platelets); format: cell-based; conditions: Homo sapiens, washed platelets from healthy volunteers, agonist giving 60-70% aggregation, % inhibition of control ADP response
Protocol: Platelet aggregation studies were performed according to a published method (Bednar, B., Condra, C., Gould, R. J., and Connolly, T. M., Throm. Res., 77:453-463 (1995). Platelet-rich plasma (PRP) concentrates prepared from healthy volunteers who were aspirin free for at least 7 days by venipuncture using ACD-A as anticoagulant was purchased from Biological Specialties, Inc. (Colmar, Pa.). PRP was centrifuged at 730 g for 15 min. The platelet pellet was washed twice in CGS buffer (13 mM sodium citrate, 30 mM glucose, 120 mM NaCl, pH 6.5) containing 1 μ/ml apyrase (grade V, Sigma-Aldrich, St. Louis, Mo.), 1 mM EGTA, and resuspended in Tyrode's buffer (140 mM NaCl, 2.7 mM KCl, 12 mM NaHCO3, 0.76 mM Na2HPO4, 5.5 mM dextrose, 5.0 mM Hepes, 0.2% BSA, pH 7.4). The platelets were diluted to 3×10^8 platelets/ml and kept >45 min at 37° C. before use. 105 μl of washed platelets, 2 mM CaCl2 and […] of fibrinogen were added to a 96-well microliter plate.
Platelet aggregation was initiated by the addition of serial concentrations of ADP (BioData Corp. Horsham, Pa.). Buffer was added to one set of control wells. The assay plate was stirred constantly and intermittently placed in a microplate reader (Softmax, Molecular Devices, Menlo Park, Calif.) to read optical density (650 nm) at 0 and 5 minutes after the addition of the compound solutions. Aggregation was calculated as the decrease in optical density between the time 0- and 5-min measurements and expressed as % of aggregation. For the inhibition assay, platelet aggregation was conducted as described above except for compound additions. Test compounds were prepared in 100% DMSO and stored.
On the day of the assay, test compounds were diluted in the buffer containing 3% of DMSO as a 10× working solution. 15 μl of compound solutions were added to 105 μl of platelets 5 min prior to the addition of CaCl2 and fibrinogen.

## CCCSc1nc(N[C@@H]2C[C@H]2c2ccccc2)c2nnn([C@@H]3C[C@H](c4nnc[nH]4)[C@@H](O)[C@H]3O)c2n1 (mixture of isomers) [Cpd 21, (1R,2S,3R,5R)-3-{7-[(1RS,2SR)-2-phenyl-cyclopropylamino]-5-propylsulfanyl-[1,2,3]triazolo[4,5-d]pyrimidin-3-yl}-5-(4H-[1,2,4]triazol-3-yl)-cyclopentane-1,2-diol]
ADP P2Y12 receptor
  IC50: 0.155 µM
P2Y12 receptor
  IC50: 0.0659 µM
platelets
  IC50: 0.046 µM

## CCCSc1nc(NC[C@@H](C)c2ccccc2)c2nnn([C@@H]3C[C@H](c4nnc(C)[nH]4)[C@@H](O)[C@H]3O)c2n1 [Cpd 16, (1S,2R,3R,5R)-3-(5-methyl-4H-[1,2,4]triazol-3-yl)-5-{7-[(2S)-2-phenylpropylamino]-5-propylsulfanyl-[1,2,3]triazolo[4,5-d]pyrimidin-3-yl}-cyclopentane-1,2-diol]
ADP P2Y12 receptor
  IC50: > 30 µM
P2Y12 receptor
  IC50: 3.88 µM
platelets
  IC50: > 30 µM

## CCCCNc1nc(SCCC)nc2c1nnn2[C@@H]1C[C@H](c2nnc(C)[nH]2)[C@@H](O)[C@H]1O [Cpd 13, (1R,2S,3R,5R)-3-(7-butylamino-5-propylsulfanyl-[1,2,3]triazolo[4,5-d]pyrimidin-3-yl)-5-(5-methyl-4H-[1,2,4]triazol-3-yl)-cyclopentane-1,2-diol]
ADP P2Y12 receptor
  IC50: 2.17 µM
P2Y12 receptor
  IC50: 2.16 µM
platelets
  IC50: 1.39 µM

## CCCSc1nc(NCCc2cccs2)c2nnn([C@@H]3C[C@H](c4nnc(C)[nH]4)[C@@H](O)[C@H]3O)c2n1 [Cpd 15, (1S,2R,3R,5R)-3-(5-methyl-4H-[1,2,4]triazol-3-yl)-5-[5-propylsulfanyl-7-(2-thiophen-2-yl-ethylamino)-[1,2,3]triazolo[4,5-d]pyrimidin-3-yl]-cyclopentane-1,2-diol]
ADP P2Y12 receptor
  IC50: 10.4 µM
P2Y12 receptor
  IC50: 3.74 µM
platelets
  IC50: 6.47 µM

## CCCSc1nc(N[C@H]2C[C@@H]2c2ccccc2)c2nnn([C@@H]3C[C@H](c4nnn[nH]4)[C@@H](O)[C@H]3O)c2n1 [Cpd 23, (1R,2S,3R,5R)-3-{7-[(1S,2R)-2-phenyl-cyclopropylamino]-5-propylsulfanyl-[1,2,3]triazolo[4,5-d]pyrimidin-3-yl}-5-(1H-tetrazol-5-yl)-cyclopentane-1,2-diol]
ADP P2Y12 receptor
  IC50: 0.264 µM
P2Y12 receptor
  IC50: 0.061 µM
platelets
  IC50: 0.04 µM

## CCCSc1nc(NC[C@@H]2CCCO2)c2nnn([C@@H]3C[C@H](c4nnn[nH]4)[C@@H](O)[C@H]3O)c2n1 [Cpd 9, (1R,2S,3R,5R)-3-(5-propylsulfanyl-7-{[(2S)-tetrahydro-furan-2-ylmethyl]-amino}-[1,2,3]triazolo[4,5-d]pyrimidin-3-yl)-5-(1H-tetrazol-5-yl)-cyclopentane-1,2-diol]
ADP P2Y12 receptor
  IC50: 2.02 µM
P2Y12 receptor
  IC50: 0.237 µM
platelets
  IC50: 4.37 µM

## CCCSc1nc(NCC(F)(F)F)c2nnn([C@@H]3C[C@H](c4nnn[nH]4)[C@@H](O)[C@H]3O)c2n1 [Cpd 8, (1R,2S,3R,5R)-3-[5-propylsulfanyl-7-(2,2,2-trifluoro-ethylamino)-[1,2,3]triazolo[4,5-d]pyrimidin-3-yl]-5-(1H-tetrazol-5-yl)-cyclopentane-1,2-diol]
ADP P2Y12 receptor
  IC50: 3.12 µM
P2Y12 receptor
  IC50: 0.665 µM
platelets
  IC50: 1.21 µM

## CCCSc1nc(NCC2CC2)c2nnn([C@@H]3C[C@H](c4nnn[nH]4)[C@@H](O)[C@H]3O)c2n1 [Cpd 10, (1R,2S,3R,5R)-3-[7-(cyclopropylmethyl-amino)-5-propylsulfanyl-[1,2,3]triazolo[4,5-d]pyrimidin-3-yl]-5-(1H-tetrazol-5-yl)-cyclopentane-1,2-diol]
ADP P2Y12 receptor
  IC50: 0.542 µM
P2Y12 receptor
  IC50: 0.139 µM
platelets
  IC50: 1.54 µM

## CCCSc1nc(N[C@@H]2C[C@H]2c2ccccc2)c2nnn([C@@H]3C[C@H](Cn4cnnn4)[C@@H](O)[C@H]3O)c2n1 (mixture of isomers) [Cpd 4, (1R,2S,3R,5R)-3-{7-[(1RS,2SR)-2-phenyl-cyclopropylamino]-5-propylsulfanyl-[1,2,3]triazolo[4,5-d]pyrimidin-3-yl}-5-tetrazol-1-ylmethyl-cyclopentane-1,2-diol]
ADP P2Y12 receptor
  IC50: 0.799 µM
P2Y12 receptor
  IC50: 0.371 µM
platelets
  IC50: 1.15 µM

## CCCSc1nc(N[C@@H]2C[C@H]2c2ccccc2)c2nnn([C@@H]3C[C@H](Cn4ccnn4)[C@@H](O)[C@H]3O)c2n1 (mixture of isomers) [Cpd 7, (1R,2S,3R,5R)-3-{7-[(1RS,2SR)-2-phenyl-cyclopropylamino]-5-propylsulfanyl-[1,2,3]triazolo[4,5-d]pyrimidin-3-yl}-5-[1,2,3]triazol-1-ylmethyl-cyclopentane-1,2-diol]
ADP P2Y12 receptor
  IC50: 0.507 µM
P2Y12 receptor
  IC50: 0.134 µM
platelets
  IC50: 0.333 µM

## CCCSc1nc(NCCc2ccccc2)c2nnn([C@@H]3C[C@H](c4nnn[nH]4)[C@@H](O)[C@H]3O)c2n1 [Cpd 12, (1R,2S,3R,5R)-3-(7-phenethylamino-5-propylsulfanyl-[1,2,3]triazolo[4,5-d]pyrimidin-3-yl)-5-(1H-tetrazol-5-yl)-cyclopentane-1,2-diol]
ADP P2Y12 receptor
  IC50: 0.416 µM
P2Y12 receptor
  IC50: 0.73 µM
platelets
  IC50: 0.292 µM

## CCCCNc1nc(SCCC)nc2c1nnn2[C@@H]1C[C@H](c2nnc[nH]2)[C@@H](O)[C@H]1O [Cpd 20, (1R,2S,3R,5R)-3-(7-butylamino-5-propylsulfanyl-[1,2,3]triazolo[4,5-d]pyrimidin-3-yl)-5-(4H-[1,2,4]triazol-3-yl)-cyclopentane-1,2-diol]
ADP P2Y12 receptor
  IC50: 0.765 µM
P2Y12 receptor
  IC50: 0.422 µM
platelets
  IC50: 0.198 µM
